Literature values in patent US6569857B1, “Dietary supplement” (Drugtech Corporation, priority 1999, dated 2003).

Legend:
[1] = tested on: spermatozoal zona binding; conditions: oral dosing over a three month period, male infertility
[2] = tested on: malondialdehyde concentrations; conditions: oral vitamin E, male infertility patients; high levels are indicia of decreased sperm motility

Q: What does the source list for vitamin E?
A: increase in spermatozoal zona binding [1]: 50%; malondialdehyde concentrations [2]: significantly decreased
